Tests used:
Type in all cases: biochemical
[1] = tested on: BCL-2; experiment: In vitro transcription-translation (IVTT) assay, BCL-2 reporter; conditions: HeLa S3 lysate, sfGFP/mCherry ratio, 2 hrs at 30° C.
Description: All reporter constructs have been cloned into the pT7CFE1-CHis plasmid (ThermoFisher #88860) using Gibson assembly procedures (NEB #E2611L). The parental pT7CFE1-CHis plasmid contains an EMCV IRES at the 5′UTR for translation initiation, a multiple-cloning site (MCS) for gene insertion, an optional C-terminal His-epitope tag, and polyA sequence in the 3′UTR to regulate mRNA stability. All reporters are designed to be inserted at the MCS to include a red fluorescent protein (mCherry), P2A self-cleaving peptide which releases the preceding mCherry protein product, and a fusion open reading frame containing a 3×FLAG epitope, a peptide sequence of interest (TEST), and green fluorescent protein (sfGFP).
Construct Plasmid Preparation: All plasmids are isolated from MACH1 cells (ThermoFisher) grown overnight in ampicillin-containing luria broth, and purified using ZymoPure Express Plasmid Midiprep Kit (Zymo Research). Constructs are sequenced verified and diluted to a working concentration of 110 ng/μL.
HeLa S3 Lysate Preparation: HeLa S3 cell pellets are acquired from Ipracell/Ipratech (Belgium) and shipped as 4 mL frozen cell pellets on dry ice for storage at −80° C. until use. The procedure for lysate preparation is as follows. Prepare 1× Lysis Buffer, cold and stored on ice:
Each preparation takes 8 cell pellets (4 ml packed volume each, approximately 1.0×10^9 cells per pellet). Thaw cell pellets from −80° C. on ice for 90 mins. Lay pellets horizontally on top of the ice and rotate every 30 mins to ensure even thawing. Once thawed, add 4 mL of cold lysis buffer to each pellet, and using a serological pipet, gently pipet up and down to break up clumps. Incubate resuspended cells in ice for an additional 30 mins (plunged into ice). During 30 min incubation, rinse and RNase-zap (Ambion) glass dounces (use loose pestle “A”), gently dry and place on ice until needed. Prepare RNase-free Eppendorf tubes for spinning and for batch storage. Add batch labels to 1.5-1.7 mL RNase-free microcentrifuge tubes (labeling scheme below). Each batch will have an extra 1.5-1.7 mL RNase-free microcentrifuge tube for 40 μL of lysate, label the top of this tube (labeling scheme below). After 30 min incubation, transfer all 8 mL of cell pellet to dounce. Cell lysis is complete after douncing 100 times. Aliquot cell lysis into 1.5-1.7 mL temporary-microcentrifuge tubes. Place tubes in centrifuge with “fins” out, and spin at 1,200×g for 5 mins. After the first spin use a 1 mL pipet to resuspend each tube and repeat spin. This acts as an additional lysis step, is more vigorous and increases lysate yield. During second spin get liquid N2 and a fresh conical tube on ice. After spin is complete, transfer supernatant (lysate) from microcentrifuge tubes into the 50 mL conical tube and keep on ice. Repeat steps 10-14 for all other cell pellets until completed. Once all cell lysate has been transferred to the 50 mL conical tube pipet to mix so the solution is homogenous. Transfer 1 mL of lysate into batch-labeled microcentrifuge tubes and flash freeze in liquid nitrogen. Be sure to pipet up and down to mix throughout transfer step. Place all tubes in the […] for long-term storage.
In vitro transcription-translation assay setup: Each assay includes a master mix containing lysate and shared components, a 96-well plate containing compound titrations for testing, a 96-well DNA plate with reporter constructs to be tested, 96-well skirted PCR plates, and 96-well flat-bottom, black, fluorescent assay plates. […]

[2] = tested on: MYC; experiment: In vitro transcription-translation (IVTT) assay, MYC reporter; conditions: HeLa S3 lysate, 2 hrs at 30° C.
Summary of the method: (§1)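 Reporter: mCherry, P2A, then 3×FLAG-target peptide-sfGFP fusion, IRES-initiated; HeLa S3 lysate IVTT; cpd dilutions 30 μM−0.1 μM half-log in 100% DMSO (dilution-plate conc); DNA added last; 2 h, 30° C; PBS quench.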

[3] = tested on: CCND1; experiment: In vitro transcription-translation (IVTT) assay, CCND1 reporter; conditions: HeLa S3 lysate, sfGFP/mCherry ratio
Summary of the method: as §1

[4] = tested on: MCL-1; experiment: In vitro transcription-translation (IVTT) assay, MCL-1 reporter; conditions: HeLa S3 lysate, sfGFP/mCherry ratio, 2 hrs at 30° C.
Summary of the method: as §1

[5] = tested on: NFKB1; experiment: In vitro transcription-translation (IVTT) assay, NFKB1 reporter; conditions: HeLa S3 lysate, sfGFP/mCherry ratio
Description: In vitro transcription-translation assay setup: Each assay includes a master mix containing lysate and shared components, a 96-well plate containing compound titrations for testing, a 96-well DNA plate with reporter constructs to be tested, 96-well skirted PCR plates, and 96-well flat-bottom, black, fluorescent assay plates. Reaction materials setup: (A) Master mix—15 mL conical tube (3 mL of HeLa S3 Lysate described above; 0.6 mL of ThermoFisher Accessory Proteins (#88882); 1.2 ml of ThermoFisher Reaction Mix (#88882); 0.54 mL of nuclease-free Water); (B) 96-Well Master Mix+Compound Plate (Half-log dilutions (30 μM−0.1 μM) of 4 compounds of interest are prepared in 100% DMSO); 96-Well DNA Plate (Five DNA constructs are plated into single columns within the plate. Row 1 of the column contains nuclease free H2O, all other wells contain 110 ng/μL plasmid DNA). Reactions are started by mixing 155 μL of master mix and 3.5 μL of compound serial dilutions, then 9.1 μL of master mix+compound mixture is aliquoted across 5 96-well plates. Reactions begin with final addition of 2 μL of DNA for a 11.1 μL reaction volume in each well. The entire plate is sealed, and incubated for 2 hrs at 30° C. After 2 hrs, quench the assay using 45 μL of PBS, and transfer 50 μL to a flat-bottom black microplate Quantify the sfGFP and mCherry signals from each well on each plate, taking 3 reads of each plate, and perform data analysis below.
In vitro transcription-translation assay data analysis: Each plate is read three times in channels for both sfGFP and mCherry signals. The average signal across these 3 reads is then calculated for further analysis. Control wells containing no DNA reporter are subtracted from reporter wells in the same column to remove auto-fluorescence of the lysate. Then, the ratio of sfGFP/mCherry is calculated per well, and these ratios are averaged across the triplicate experiments on the same plate. Finally, the ratio of each titration concentration is normalized to the no drug control to create the normalized stalling metric. The error on this measurement is determined by propagating error through the averaging and normalization steps. Values are plotted and fit for IC50 determination for each test sequence and titration of compound.

[6] = IVTT assay, MYC reporter, normalized sfGFP/mCherry ratio, half-log dilutions 30 μM-0.1 μM

Compound | IC50 [1] [µM] | IC50 ([2]; sfGFP/mCherry ratio) [µM] | IC50 ([3]; 2 hrs at 30° C.) [µM] | IC50 [4] [µM] | IC50 ([3]; IVTT assay) [µM] | IC50 [5] [µM] | IC50 [2, 6] [µM]
COc1ccc(C[C@H]2NC[C@H](O)[C@H]2OC(=O)NCc2ccc(I)cc2)cc1 [V187928, (2R,3S,4S)-4-hydroxy-2-[(4-methoxyphenyl)methyl]pyrrolidin-3-yl N-[(4-iodophenyl)methyl]carbamate] | > 30 | 10 to 20 | > 30 | 10 to 20 |  |  | 
COc1ccc(C[C@H]2NC[C@H](O)[C@H]2OC(=O)NCc2ccncc2Cl)cc1 [V188052, (2R,3S,4S)-4-hydroxy-2-[(4-methoxyphenyl)methyl]pyrrolidin-3-yl N-[(3-chloropyridin-4-yl)methyl]carbamate] | 10 to 20 | < 10 |  | < 10 |  |  | 
COc1ccc(C[C@H]2NC[C@H](O)[C@H]2OC(=O)NCCc2n[nH]cc2C#N)cc1 [Cmpd V188126] | < 10 |  | < 10 | < 10 |  |  | 
COc1ccc(C[C@H]2NC[C@H](O)[C@H]2OC(=O)NCCNC(=O)C2(N)CC2)cc1 [V187919, (2R,3S,4S)-4-hydroxy-2-[(4-methoxyphenyl)methyl]pyrrolidin-3-yl N-{2-[(1-aminocyclopropyl)formamido]ethyl}carbamate] | > 30 | 20 to 30 | > 30 |  |  |  | 
COc1ccc(C[C@H]2NC[C@H](O)[C@H]2OC(=O)NCCc2ccc(-c3ccccc3)cc2)cc1 [V187979] | > 30 | > 30 |  | > 30 |  |  | 
COc1ccc(C[C@H]2NC[C@H](O)[C@H]2OC(=O)NC[C@@H]2CCCNC2)cc1 [V187929, (2R,3S,4S)-4-hydroxy-2-[(4-methoxyphenyl)methyl]pyrrolidin-3-yl N-[(3R)-piperidin-3-ylmethyl]carbamate] | > 30 | > 30 |  | > 30 |  |  | 
COc1ccc(C[C@H]2NC[C@H](O)[C@H]2OC(=O)NCCNC(=O)[C@@H]2CCCN2)cc1 [V188015, (2R,3S,4S)-4-hydroxy-2-[(4-methoxyphenyl)methyl]pyrrolidin-3-yl N-{2-[(2S)-pyrrolidin-2-ylformamido]ethyl}carbamate] | > 30 |  | 10 to 20 | 10 to 20 |  |  | 
O=C(NCC[C@@H]1CCNCC1(F)F)O[C@@H]1[C@@H](O)CN[C@@H]1Cc1ccc(-c2cnco2)cc1 [V192234, (2R,3S,4S)-4-hydroxy-2-{[4-(1,3-oxazol-5-yl)phenyl]methyl}pyrrolidin-3-yl N-{2-[(4S)-3,3-difluoropiperidin-4-yl]ethyl}carbamate] |  |  |  |  | < 10 | < 10 | < 10
COc1ccc(C[C@H]2NC[C@H](O)[C@H]2OC(=O)NCc2n[nH]nc2COCc2ccccc2)cc1 [Cmpd V187805] | > 30 |  | > 30 | > 30 |  |  | 
O=C(NCc1cnsc1)O[C@@H]1[C@@H](O)CN[C@@H]1Cc1ccc(-c2cnco2)cc1 [V192110, (2R,3S,4S)-4-hydroxy-2-(4-(oxazol-5-yl)benzyl)pyrrolidin-3-yl (isothiazol-4-ylmethyl)carbamate] |  |  |  |  | < 10 | < 10 | < 10
(2R,3S,4S)-2-{[2-fluoro-4-(1,3-oxazol-5-yl)phenyl]methyl}-4-hydroxypyrrolidin-3-ylN-[(3-fluorophenyl)methyl]carbamate [V192861] |  |  |  |  | < 10 | < 10 | < 10

The next lines start with results.

IC50 [1] [µM] | IC50 ([2]; sfGFP/mCherry ratio) [µM] | IC50 ([3]; 2 hrs at 30° C.) [µM] | IC50 [4] [µM] | IC50 ([3]; IVTT assay) [µM] | IC50 [5] [µM] | Compound | IC50 [2, 6] [µM]
 |  |  |  | < 10 | < 10 | O=C(NCC[C@@H]1C[C@H](F)CN1)O[C@@H]1[C@@H](O)CN[C@@H]1Cc1ccc(-c2cnco2)cc1 [V192917, (2R,3S,4S)-4-hydroxy-2-{[4-(1,3-oxazol-5-yl)phenyl]methyl}pyrrolidin-3-yl N-{2-[(2R,4S)-4-fluoropyrrolidin-2-yl]ethyl}carbamate] | < 10
 |  |  |  | < 10 | < 10 | O=C(NCC[C@@H]1CCCN1)O[C@@H]1[C@@H](O)CN[C@@H]1Cc1ccc(-c2cnns2)cc1 [V192320, (2R,3S,4S)-4-hydroxy-2-{[4-(1,2,3-thiadiazol-5-yl)phenyl]methyl}pyrrolidin-3-yl N-{2-[(2S)-pyrrolidin-2-yl]ethyl}carbamate] | < 10
 |  |  |  | < 10 | < 10 | O=C(NCC[C@H]1CCNCC1(F)F)O[C@@H]1[C@@H](O)CN[C@@H]1Cc1ccc(-c2cnco2)cc1 [V192894, (2R,3S,4S)-4-hydroxy-2-{[4-(1,3-oxazol-5-yl)phenyl]methyl}pyrrolidin-3-yl N-{2-[(4R)-3,3-difluoropiperidin-4-yl]ethyl}carbamate] | < 10
 |  |  |  | < 10 | < 10 | O=C(NCc1cccc(F)c1)O[C@@H]1[C@@H](O)CN[C@@H]1Cc1ccc(Oc2cncs2)cc1 [V192395, (2R,3S,4S)-4-hydroxy-2-{[4-(1,3-thiazol-5-yloxy)phenyl]methyl}pyrrolidin-3-yl N-[(3-fluorophenyl)methyl]carbamate] | < 10
 |  |  |  | < 10 | < 10 | O=C(NCc1cccc(F)c1)O[C@@H]1[C@@H](O)CN[C@@H]1Cc1ccc(-c2ccc3nonc3c2)cc1 [V192385, (2R,3S,4S)-2-{[4-(2,1,3-benzoxadiazol-5-yl)phenyl]methyl}-4-hydroxypyrrolidin-3-yl N-[(3-fluorophenyl)methyl]carbamate] | < 10
 |  |  |  | < 10 | < 10 | O=C(NCc1cccc(F)c1)O[C@@H]1[C@@H](O)CN[C@@H]1Cc1ccc(-c2cn3cc(C(F)(F)F)nc3s2)cc1 [V192874, (2R,3S,4S)-4-hydroxy-2-({4-[6-(trifluoromethyl)imidazo[2,1-b][1,3]thiazol-2-yl]phenyl}methyl)pyrrolidin-3-yl N-[(3-fluorophenyl)methyl]carbamate] | < 10
 |  |  |  | 10 to 20 | < 10 | O=C(NCC[C@@H]1CCCN1)O[C@@H]1[C@@H](O)CN[C@@H]1Cc1ccc(-c2cnco2)c(F)c1 [V192903, (2R,3S,4S)-2-{[3-fluoro-4-(1,3-oxazol-5-yl)phenyl]methyl}-4-hydroxypyrrolidin-3-yl N-{2-[(2S)-pyrrolidin-2-yl]ethyl}carbamate] | < 10
